Values quoted from earlier work, collected in patent publication US20070172525A1, “Anti-diabetic combinations” (priority 2007, published 2007).

Experiments:
[1] = oral
patients with T2DM [2] = tested on: patients with T2DM
patients with T2DM [3] = tested on: patients with T2DM; remark: listed apart in the source
patients with T2DM [4] = tested on: patients with T2DM; remark: listed apart in the source
[5] = monotherapy, 100 or 200 mg daily
[6] = sitagliptin 100 mg daily added to metformin

In the case of CN(C)C(=N)N=C(N)N [Conventional Metformin, Metformin], the “Time to complete gastrointestinal absorption after ingestion” value [1] is listed as no more than 6 h.
For N[C@@H](CC(=O)N1CCn2c(nnc2C(F)(F)F)C1)Cc1cc(F)c(F)cc1F [Sitagliptin], the Weight gain (patients with T2DM [2]; 24-week monotherapy studies) is listed as “no significant weight gain”, the HbA1C (patients with T2DM [2]; [5]) is listed as “significantly reduced” and the Hypoglycemia (patients with T2DM [2]; [5]) is listed as “no significant increase”. For the same compound, the “Patients achieved a HbA1C of <7%” value (patients with T2DM [3]; 24 weeks, sitagliptin 100 mg daily plus pioglitazone versus pioglitazone alone) was 45.4%, the “Mean HbA1C reduction” value (patients with T2DM [3]; sitagliptin 100 mg daily added to pioglitazone (30 or 45 mg daily), 24 weeks, mean HbA1C 8.1%) was 0.7% and the “Rates of hypoglycemia or weight gain relative to pioglitazone alone” value (patients with T2DM [3]; sitagliptin added to pioglitazone) was “not associated with increased rates”. The “Patients achieving a HbA1C of <7%” value (patients with T2DM [4]; sitagliptin 100 mg daily added to at least 1,500 mg per day of metformin, mean HbA1C of 8%) was 47%, the Fasting glucose (patients with T2DM [4]; [6]) was “significant reductions” and the “Mean placebo-subtracted reduction in HbA1C” value (patients with T2DM [4]; [6]) was 0.65%.
